This is an account of results in US6468980B1, “Methods and compositions for potentiating cancer chemotherapeutic agents” (Oxycal Laboratories, Inc., priority 2000, dated 2002).

In the test the test system is SK-Hep-1, a liver adenocarcinoma (hepatoma) cells. Put plainly: BrdU cell proliferation ELISA, adriamycin plus ascorbate adjuvant, hepatoma cells. The class given is cell-based, human. The following applies: for suppression of hepatoma proliferation, ADR plus adjuvant compared with ADR alone: adjuvant 0.5 mM AA equivalents, one application of ADR (0.003-0.3 micromolar), two applications of adjuvant, FIG. 1. An excerpt: Calcium ascorbate (CA), calcium threonate (CT), 4-hydroxy-5-methyl-3(2H)-furanone (FR) and Ester-C (EC) are obtained from Inter-Cal Corporation, Prescott, Ariz., USA. Tissue culture grade Ascorbic acid (AA) is from Sigma Chemical Company, St. Louis, Mo., USA. The composition of calcium ascorbate (calcium di-(L-ascorbate) dihydrate) is made by sequentially dissolving individual components in sterile water to obtain master-stock solutions of equal strength (1% w/v). Aqueous solution of calcium ascorbate plus calcium threonate plus 4-hydroxy-5-methyl-3(2H)-furanone (CA/CT/FR) is prepared at ratio of 85/7.5/7.5. For comparative analysis, stock solutions containing identical ascorbic acid (AA) equivalents are used. All master stocks are stored at room temperature during the course of these procedures. From these, 10× strength working stocks are prepared by serial dilution on the day of use and are applied to cells in microtiter plates as described below.
Adriamycin (doxorubicin) is obtained from Sigma Chemical Company (St. Louis, Mo.). Stock solutions are made by dissolving adriamycin (ADR) in sterile water and DTIC in water or dilute acetic acid solution (0.01N). Stocks are stored frozen at −10 C and thawed prior to use. Serial dilutions are made in sterile water to obtain 10× strength solutions and […] of this is applied to cells at the time of treatment.
Target human tumor-derived or normal lines consist of SK-Hep-1, a liver adenocarcinoma ([…]) and Malme-3M, a malignant melanoma. All seed cultures are obtained from ATCC, Mannassas, Va., USA and are propagated/maintained in serum-containing growth medium in a humidified incubator of 5% CO2/95% air. SH-Hep-1 cells are grown in Eagle's minimum essential medium (EMEM) in Earle's salts plus non-essential amino acids supplemented with 10% FBS plus antibiotics and Malme-3M cells are cultured in McCoy's medium supplemented with 15% fetal bovine serum (FBS) plus antibiotics.
For treatment, exponentially growing cells are seeded at a density of 1×10^4 cells per well of 96-well microtiter plate in 0.1-0.2 ml of growth medium. After overnight cell attachment at 37 C, duplicate wells are exposed to various treatments by direct application of one-tenth volume of 10× strength solution. For treatments involving chemotherapeutic agent, one-tenth volume of serial dilutions of adriamycin (0.0006-3.0 micromolar) are applied to wells followed by application of ascorbate-containing composition (adjuvant) or sterile water (control). The adjuvant treatment is repeated every other day or on the third day (as applicable) without change of growth medium. Untreated controls receive an equivalent amount of sterile water. After 2-3 treatments with adjuvant, cells are labeled with BudR as described below. (In some experiments, wells are refed an equal volume of growth medium prior to additional of BudR. This gives a higher amount of BrdU incorporation into DNA relative to no refluiding).
For DNA labeling, the following procedure are adapted and modified from the Cell Proliferation ELISA, BudR (Colorimetric) assay of Roche Diagnostics, Indianapolis, IN, USA: Each treated well is exposed to one-tenth volume of 10× BrdU-containing medium and reincubated and 37 C overnight (15-20 hrs.). One set of control wells is exposed to medium only (no BudR) to obtain an absorbance-control (substrate only) blank for the assay. After the labeling period, the culture medium is removed and the cells are fixed and DNA denatured in one step by adding FixDenat (30 min at RT). Then, FixDenat is removed, the anti-BrdU-peroxidase reagent is added and incubation continues for 90 min at RT. After removal of the latter, the plate is washed 3 times, followed by addition of substrate solution. The plate is kept at RT until color development became sufficient for photometric detection (5-10 min). […]
For orientation: In an ELISA, binding on a coated surface is turned into a signal by an enzyme label.

With `O=C1O[C@H]([C@@H](O)CO)C(O)=C1O` [AA, Ascorbic acid, reference compound], the “suppression of hepatoma proliferation, ADR plus adjuvant compared with ADR alone” value (“suppression … compared with ADR alone” for short) was “greater suppression of hepatoma proliferation than ADR alone”. In addition, the “suppression … compared with ADR alone” value (listed as Ascorbic Acid (AA)) is given as “greater suppression of hepatoma proliferation than doxorubicin alone”.

On to calcium di-(L-ascorbate) dihydrate, for which the “suppression … compared with ADR alone” value is, setting by setting: (dihydrate) “greater suppression of hepatoma proliferation than ADR alone”; (listed as Calcium Ascorbate (CA), dihydrate) “greater suppression of hepatoma proliferation than doxorubicin alone”; (listed as Calcium ascorbate, dihydrate) “more effective than ascorbic acid”. The “effect of adjuvant on anti-proliferation activity of low doses of ADR in hepatoma cells” value (adjuvant at 0.033%, FIG. 4) is given as “consistently improve the anti-proliferation activity of low doses of ADR”.
